Results taken from the NIST ThermoML archive (doi:10.1021/je100237h).

Conditions: Liquid; for viscosity: 101.33 kPa, Concentric cylinders viscometry; for mass density: Vibrating tube method

CC(C)COC(=O)CCCCC(=O)OCC(C)C [diisobutyl adipate]
Conditions | viscosity [mPa·s]
283.15 K | 8.56
288.15 K | 7.22
293.15 K | 6.17
298.15 K | 5.33
303.15 K | 4.65
308.15 K | 4.09
313.15 K | 3.63
318.15 K | 3.24
323.15 K | 2.92
328.15 K | 2.64
333.15 K | 2.4
338.15 K | 2.19
343.15 K | 2.01
348.15 K | 1.85
353.15 K | 1.71
358.15 K | 1.59
363.15 K | 1.48
368.15 K | 1.38
373.15 K | 1.29

Conditions | mass density [kg/m3]
293.15 K, 100 kPa | 951.7
293.15 K, 10000 kPa | 958.4
293.15 K, 20000 kPa | 964.7
293.15 K, 30000 kPa | 970.6
293.15 K, 40000 kPa | 976.1
293.15 K, 50000 kPa | 981.4
293.15 K, 60000 kPa | 986.4
293.15 K, 70000 kPa | 991.2
293.15 K, 80000 kPa | 995.9
293.15 K, 90000 kPa | 1000.3
293.15 K, 100000 kPa | 1004.7
293.15 K, 110000 kPa | 1008.7
293.15 K, 120000 kPa | 1012.7
293.15 K, 130000 kPa | 1016.6
293.15 K, 140000 kPa | 1020.3
303.15 K, 100 kPa | 942.8
303.15 K, 10000 kPa | 949.9
303.15 K, 20000 kPa | 956.4
303.15 K, 30000 kPa | 962.6
303.15 K, 40000 kPa | 968.3
303.15 K, 50000 kPa | 974
303.15 K, 60000 kPa | 979.1
303.15 K, 70000 kPa | 984.2
303.15 K, 80000 kPa | 989
303.15 K, 90000 kPa | 993.4
303.15 K, 100000 kPa | 997.8
303.15 K, 110000 kPa | 1002.1
303.15 K, 120000 kPa | 1006.3
303.15 K, 130000 kPa | 1010.3
303.15 K, 140000 kPa | 1014
313.15 K, 100 kPa | 934.2
313.15 K, 10000 kPa | 941.6
313.15 K, 20000 kPa | 948.5
313.15 K, 30000 kPa | 954.9
313.15 K, 40000 kPa | 960.9
313.15 K, 50000 kPa | 966.6
313.15 K, 60000 kPa | 972.1
313.15 K, 70000 kPa | 977.2
313.15 K, 80000 kPa | 982
313.15 K, 90000 kPa | 986.7
313.15 K, 100000 kPa | 991.2
313.15 K, 110000 kPa | 995.6
313.15 K, 120000 kPa | 999.9
313.15 K, 130000 kPa | 1003.9
313.15 K, 140000 kPa | 1007.9
323.15 K, 100 kPa | 925.6
323.15 K, 10000 kPa | 933.4
323.15 K, 20000 kPa | 940.5
323.15 K, 30000 kPa | 947.3
323.15 K, 40000 kPa | 953.7
323.15 K, 50000 kPa | 959.7
323.15 K, 60000 kPa | 965.2
323.15 K, 70000 kPa | 970.6
323.15 K, 80000 kPa | 975.6
323.15 K, 90000 kPa | 980.5
323.15 K, 100000 kPa | 985.3
323.15 K, 110000 kPa | 989.8
323.15 K, 120000 kPa | 994.2
323.15 K, 130000 kPa | 998.3
323.15 K, 140000 kPa | 1003
333.15 K, 100 kPa | 916.7
333.15 K, 10000 kPa | 924.9
333.15 K, 20000 kPa | 932.4
333.15 K, 30000 kPa | 939.3
333.15 K, 40000 kPa | 945.8
333.15 K, 50000 kPa | 952
333.15 K, 60000 kPa | 957.8
333.15 K, 70000 kPa | 963.3
333.15 K, 80000 kPa | 968.5
333.15 K, 90000 kPa | 973.4
333.15 K, 100000 kPa | 978.2
333.15 K, 110000 kPa | 982.8
333.15 K, 120000 kPa | 987.3
333.15 K, 130000 kPa | 991.6
333.15 K, 140000 kPa | 995.7
343.15 K, 100 kPa | 908.1
343.15 K, 10000 kPa | 916.3
343.15 K, 20000 kPa | 924.3
343.15 K, 30000 kPa | 931.5
343.15 K, 40000 kPa | 938.3
343.15 K, 50000 kPa | 944.7
343.15 K, 60000 kPa | 950.8
343.15 K, 70000 kPa | 956.3
343.15 K, 80000 kPa | 961.8
343.15 K, 90000 kPa | 967
343.15 K, 100000 kPa | 971.8
343.15 K, 110000 kPa | 976.5
343.15 K, 120000 kPa | 981.1
343.15 K, 130000 kPa | 985.5
343.15 K, 140000 kPa | 989.7
353.15 K, 100 kPa | 899.3
353.15 K, 10000 kPa | 908
353.15 K, 20000 kPa | 916.2
353.15 K, 30000 kPa | 923.7
353.15 K, 40000 kPa | 930.9
353.15 K, 50000 kPa | 937.7
353.15 K, 60000 kPa | 943.9
353.15 K, 70000 kPa | 950
353.15 K, 80000 kPa | 955.5
353.15 K, 90000 kPa | 960.8
353.15 K, 100000 kPa | 965.7
353.15 K, 110000 kPa | 970.5
353.15 K, 120000 kPa | 974.9
353.15 K, 130000 kPa | 979.5
353.15 K, 140000 kPa | 983.7
363.15 K, 100 kPa | 890.2
363.15 K, 10000 kPa | 899.9
363.15 K, 20000 kPa | 908.7
363.15 K, 30000 kPa | 916.4
363.15 K, 40000 kPa | 923.7
363.15 K, 50000 kPa | 930.4
363.15 K, 60000 kPa | 936.9
363.15 K, 70000 kPa | 943.2
363.15 K, 80000 kPa | 948.9
363.15 K, 90000 kPa | 954.1
363.15 K, 100000 kPa | 959.4
363.15 K, 110000 kPa | 964.4
363.15 K, 120000 kPa | 969
363.15 K, 130000 kPa | 973.7
363.15 K, 140000 kPa | 978.1
373.15 K, 100 kPa | 882.3
373.15 K, 10000 kPa | 891.5
373.15 K, 20000 kPa | 900.5
373.15 K, 30000 kPa | 908.6
373.15 K, 40000 kPa | 916.5
373.15 K, 50000 kPa | 923.3
373.15 K, 60000 kPa | 930.1
373.15 K, 70000 kPa | 936.4
373.15 K, 80000 kPa | 942.2
373.15 K, 90000 kPa | 947.8
373.15 K, 100000 kPa | 953.2
373.15 K, 110000 kPa | 958.2
373.15 K, 120000 kPa | 963.2
373.15 K, 130000 kPa | 967.8
373.15 K, 140000 kPa | 972.5
383.15 K, 100 kPa | 873.2
383.15 K, 10000 kPa | 883.6
383.15 K, 20000 kPa | 893.1
383.15 K, 30000 kPa | 901.7
383.15 K, 40000 kPa | 909.6
383.15 K, 50000 kPa | 916.6
383.15 K, 60000 kPa | 923.5
383.15 K, 70000 kPa | 929.4
383.15 K, 80000 kPa | 935.7
383.15 K, 90000 kPa | 941.2
383.15 K, 100000 kPa | 946.7
383.15 K, 110000 kPa | 951.8
383.15 K, 120000 kPa | 957
383.15 K, 130000 kPa | 961.5
383.15 K, 140000 kPa | 966.1
393.15 K, 100 kPa | 864.7
393.15 K, 10000 kPa | 875.3
393.15 K, 20000 kPa | 885.1
393.15 K, 30000 kPa | 893.9
393.15 K, 40000 kPa | 902.1
393.15 K, 50000 kPa | 909.5
393.15 K, 60000 kPa | 916.6
393.15 K, 70000 kPa | 923.2
393.15 K, 80000 kPa | 929.5
393.15 K, 90000 kPa | 935.3
393.15 K, 100000 kPa | 941.1
393.15 K, 110000 kPa | 946.2
393.15 K, 120000 kPa | 951.4
393.15 K, 130000 kPa | 956.3
393.15 K, 140000 kPa | 960.9
403.15 K, 100 kPa | 856.8
403.15 K, 10000 kPa | 867.3
403.15 K, 20000 kPa | 877.3
403.15 K, 30000 kPa | 886.5
403.15 K, 40000 kPa | 894.8
403.15 K, 50000 kPa | 902.7
403.15 K, 60000 kPa | 909.9
403.15 K, 70000 kPa | 916.6
403.15 K, 80000 kPa | 923.3
403.15 K, 90000 kPa | 929.4
403.15 K, 100000 kPa | 935
403.15 K, 110000 kPa | 940.3
403.15 K, 120000 kPa | 945.5
403.15 K, 130000 kPa | 950.6
403.15 K, 140000 kPa | 955.4
